Values quoted from earlier work as cited in patent US20240390346A1, “COMPOSITIONS FOR A DIETARY SUPPLEMENT TO MANAGE SENESCENT CELLS” (Neurohacker Collective, LLC, priority 2023, published 2024).

tested on: senescent cells; settings: literature studies

Compound | senolytic / senomorphic activity
O=c1c(O)c(-c2ccc(O)c(O)c2)oc2cc(O)ccc12 [Fisetin] | both senolytic and senomorphic activity
O=c1cc(-c2ccc(O)c(O)c2)oc2cc(O)cc(O)c12 [Luteolin] | senolytic activity
COc1cc(/C=C/C(=O)N2CCC=CC2=O)cc(OC)c1OC [Piperlongumine] | senolytic activity
O=c1c(O)c(-c2ccc(O)c(O)c2)oc2cc(O)cc(O)c12 [quercetin] | both senolytic and senomorphic
